Assays:
H146 cells = experiment: H146 cell viability, MTT assay; format: cell-based; conditions: Homo sapiens, NCI-H146, 48 h, 48 h exposure
In short: (§1)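 Cells grown in RPMI 1640 with 10% heat-inactivated FBS at 37° C, 5% CO2, exposed 48 h to nine 3.16-fold serial compound dilutions in triplicate. MTT added for 4 h, SDS/HCl solubilisation overnight, absorbance at 540 nm; IC50 by four-parameter fit.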

MOLT-4 cells = experiment: MOLT-4 cell viability, MTT assay; format: cell-based; conditions: Homo sapiens, MOLT-4, 48 h, 48 h exposure
In short: as §1

BCLXL = BCLXL (Homo sapiens, UniProt Q07817, V10N/V9A); experiment: Fluorescence polarisation assay (PUMA-based probe displacement); format: binding; also: 20 nM protein, 10 nM fluorescent probe
Bcl-xL protein = target: T1, Bcl-xL protein (Homo sapiens, UniProt Q07817, N197C); experiment: Fluorescence quenching assay (PUMA peptide displacement); format: binding; conditions: 1 nM protein, 400 nM peptide, 2 hours at 23° C.; KI determined from IC50
T1 construct: (2-197)[N197C]; His-His (two His8 stretches joined by a Gly/Ala/Ser/Thr linker)
Source text: Fluorescence quenching assay measures the change in fluorescence intensity of C-terminally Cy5-labeled BCL-xL protein, His-His-(EK)-hs ? (2-197)[N197C] (UniProtKB® primary accession number Q07817-1) having an amino acid sequence (SEQ ID:03): [[…] […] […] […] […]] which is linked in C-terminal region to the amino acid X which corresponds to a cysteine labeled on the sulfur with Sulfo-Cyanine5 from Lumiprobe GmbH catalogue number 13380, upon binding of a C-terminally labeled peptide derived from PUMA (UniProtKB® primary accession number Q9BXH1) having an aminoacid sequence (SEQ ID:04): [[…]] which is linked in C-terminal region to the amino acid X′ where X′ is cysteine labeled on the sulfur with TQ5WS from AAT Bioquest catalogue number 2079.
The addition of a compound which binds competitively to the same site as the peptide will result in an increase in the fluorescence intensity of the protein due to displacement of the fluorescence quencher.
An 11-point serial dilution of each compound was prepared in DMSO the final buffer conditions were 10 mM 4-(2-hydroxyethyl)-1-piperazineethanesulfonic acid [HEPES], 150 mM NaCl, 0.05% Tween 20, pH 7.4 and 5% DMSO. The final protein concentration in the assay was 1 nM with the peptide present at 400 nM. The experiments were incubated for 2 hours at 23° C. before fluorescence intensity was measured on a Biotek SynergyNeo plate reader (Excitation 620 nm, emission 680 nm). […] The KI values were determined from the IC50 values according to Cer et al, Nucleic Acids Res, 2009, Jul. 1: 37(WebServer issue): W441-W445.

BCLXL, sequence (Q07817 with tags, fused parts or gaps V9A/V10N): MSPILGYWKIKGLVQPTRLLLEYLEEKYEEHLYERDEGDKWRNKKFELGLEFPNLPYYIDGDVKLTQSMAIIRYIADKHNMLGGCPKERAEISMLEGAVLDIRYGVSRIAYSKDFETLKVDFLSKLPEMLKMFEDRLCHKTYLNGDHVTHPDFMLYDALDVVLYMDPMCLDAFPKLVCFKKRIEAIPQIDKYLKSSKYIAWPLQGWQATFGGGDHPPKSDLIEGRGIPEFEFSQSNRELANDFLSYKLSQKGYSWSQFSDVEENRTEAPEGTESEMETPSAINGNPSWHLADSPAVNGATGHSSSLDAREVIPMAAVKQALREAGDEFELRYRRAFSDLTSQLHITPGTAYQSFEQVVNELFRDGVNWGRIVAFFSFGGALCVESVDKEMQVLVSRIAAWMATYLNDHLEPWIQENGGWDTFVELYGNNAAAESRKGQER
T1 sequence (Q07817 2-197 N197C): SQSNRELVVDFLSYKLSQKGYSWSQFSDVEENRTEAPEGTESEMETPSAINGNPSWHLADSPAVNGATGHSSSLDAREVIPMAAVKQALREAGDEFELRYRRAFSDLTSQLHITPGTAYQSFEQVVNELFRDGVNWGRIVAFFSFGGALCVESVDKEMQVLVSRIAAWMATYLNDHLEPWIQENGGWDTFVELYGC

SMILES | IC50 (H146 cells) | IC50 (MOLT-4 cells) | Ki (BCLXL) | Ki (Bcl-xL protein)
Cc1cc(N(C)c2nc(C(=O)O)c(C3CCCCC3)s2)nnc1Nc1nc2ccccc2s1 [Example 102, 2-({6-[(1,3-Benzothiazol-2-yl)amino]-5-methylpyridazin-3-yl}(methyl)amino)-5-cyclohexyl-1,3-thiazole-4-carboxylic acid] | > 15 µM | > 15000 nM | 220 nM | –
Cc1cc(N(C)c2nc(C(=O)O)c(C3CCCC3)s2)nnc1Nc1nc2ccccc2s1 [Example 105, 2-({6-[(1,3-Benzothiazol-2-yl)amino]-5-methylpyridazin-3-yl}(methyl)amino)-5-cyclopentyl-1,3-thiazole-4-carboxylic acid] | > 15 µM | > 15000 nM | 380 nM | –
C=Cc1sc(N(C)c2cc(C)c(Nc3nc4ccccc4s3)nn2)nc1C(=O)O [Example 106, 2-({6-[(1,3-benzothiazol-2-yl)amino]-5-methylpyridazin-3-yl}(methyl)amino)-5-ethenyl-1,3-thiazole-4-carboxylic acid] | > 15 µM | > 15000 nM | 27 nM | –
CNCCN(C)CCCCN(c1cc(C)c(Nc2nc3ccccc3s2)nn1)c1nc(C(=O)O)c(CCCOc2ccc(C#CCN(C)C)cc2F)s1 [Example 178, 2-[[6-(1,3-Benzothiazol-2-ylamino)-5-methyl-pyridazin-3-yl]-[4-[methyl-[2-(methylamino)ethyl]amino]butyl]amino]-5-[3-[4-[3-(dimethylamino)prop-1-ynyl]-2-fluoro-phenoxy]propyl]thiazole-4-carboxylic acid] | – | – | – | 7.4 pM
Cc1cc(N(CCCCNCCN2CCCCC2)c2nc(C(=O)O)c(CCCOc3ccc(C#CCN(C)C)cc3F)s2)nnc1Nc1nc2ccccc2s1 [Example 179, 2-[[6-(1,3-Benzothiazol-2-ylamino)-5-methyl-pyridazin-3-yl]-[4-[2-(1-piperidyl)ethylamino]butyl]amino]-5-[3-[4-[3-(dimethylamino)prop-1-ynyl]-2-fluoro-phenoxy]propyl]thiazole-4-carboxylic acid] | – | – | – | 6.8 pM
Cc1cc(N(CCCCNCCN2CCOCC2)c2nc(C(=O)O)c(CCCOc3ccc(C#CCN(C)C)cc3F)s2)nnc1Nc1nc2ccccc2s1 [Example 180, 2-[[6-(1,3-Benzothiazol-2-ylamino)-5-methyl-pyridazin-3-yl]-[4-(2-morpholinoethylamino)butyl]amino]-5-[3-[4-[3-(dimethylamino)prop-1-ynyl]-2-fluoro-phenoxy]propyl]thiazole-4-carboxylic acid] | – | – | – | 5.2 pM
Cc1cc(N(CCCCNC2CCN(C)CC2)c2nc(C(=O)O)c(CCCOc3ccc(C#CCN(C)C)cc3F)s2)nnc1Nc1nc2ccccc2s1 [Example 181, 2-[[6-(1,3-Benzothiazol-2-ylamino)-5-methyl-pyridazin-3-yl]-[4-[(1-methyl-4-piperidyl)amino]butyl]amino]-5-[3-[4-[3-(dimethylamino)prop-1-ynyl]-2-fluoro-phenoxy]propyl]thiazole-4-carboxylic acid] | – | – | – | 4.3 pM
CNCC#Cc1ccc(OCCCc2sc(N(C)c3cc(C(F)(F)F)c(Nc4nc5ccccc5s4)nn3)nc2C(=O)O)c(F)c1 [Example 209, 2-[[6-(1,3-Benzothiazol-2-ylamino)-5-(trifluoromethyl)pyridazin-3-yl]-methyl-amino]-5-[3-[2-fluoro-4-[3-(methylamino)prop-1-ynyl]phenoxy]propyl]thiazole-4-carboxylic acid] | – | – | – | 23 pM
CNCC#Cc1ccc(OCCCc2sc(N(CCCC[N+](C)(C)C)c3cc(C)c(Nc4nc5ccccc5s4)nn3)nc2C(=O)O)c(F)c1 [Example 232, 2-[[6-(1,3-Benzothiazol-2-ylamino)-5-methyl-pyridazin-3-yl]-[4-(trimethylammonio)butyl]amino]-5-[3-[2-fluoro-4-[3-(methylamino)prop-1-ynyl]phenoxy]propyl]thiazole-4-carboxylate] | – | – | – | 1.7 pM
CNCC#Cc1ccc(OCCCc2sc(N(CCCP(=O)(O)O)c3cc(C)c(Nc4nc5ccccc5s4)nn3)nc2C(=O)O)c(F)c1 [Example 237, 2-[[6-(1,3-Benzothiazol-2-ylamino)-5-methyl-pyridazin-3-yl]-(3-phosphonopropyl)amino]-5-[3-[2-fluoro-4-[3-(methylamino)prop-1-ynyl]phenoxy]propyl]thiazole-4-carboxylic acid] | – | 750 nM | – | 1.8 pM
Cc1cc(N(CCCP(=O)(O)O)c2nc(C(=O)O)c(CCCOc3ccc(C#CCN(C)C)cc3F)s2)nnc1Nc1nc2ccccc2s1 [Example 239, 2-({6-[(1,3-Benzothiazol-2-yl)amino]-5-methylpyridazin-3-yl}(3-phosphonopropyl)amino)-5-(3-{4-[3-(dimethylamino)prop-1-yn-1-yl]-2-fluorophenoxy}propyl)-1,3-thiazole-4-carboxylic acid] | – | 314 nM | – | 2.7 pM
Cc1cc(N(CCCS(=O)(=O)O)c2nc(C(=O)O)c(CCCOc3ccc(C#CCN(C)C)cc3F)s2)nnc1Nc1nc2ccccc2s1 [Example 240, 2-({6-[(1,3-Benzothiazol-2-yl)amino]-5-methylpyridazin-3-yl}(3-sulfopropyl)amino)-5-(3-{4-[3-(dimethylamino)prop-1-yn-1-yl]-2-fluorophenoxy}propyl)-1,3-thiazole-4-carboxylic acid] | – | 1320 nM | – | 7.3 pM
Cc1cc(N(CCCCS(=O)(=O)O)c2nc(C(=O)O)c(CCCOc3ccc(C#CCN(C)C)cc3F)s2)nnc1Nc1nc2ccccc2s1 [Example 241, 2-({6-[(1,3-Benzothiazol-2-yl)amino]-5-methylpyridazin-3-yl}(4-sulfobutyl)amino)-5-(3-{4-[3-(dimethylamino)prop-1-yn-1-yl]-2-fluorophenoxy}propyl)-1,3-thiazole-4-carboxylic acid] | – | 1190 nM | – | 9.4 pM

Results, then the compound that gave them:

IC50 (H146 cells) | IC50 (MOLT-4 cells) | Ki (BCLXL) | Ki (Bcl-xL protein) | SMILES
– | 752 nM | – | 5.3 pM | Cc1cc(N(CCCCC[N+](C)(C)CCO)c2nc(C(=O)[O-])c(CCCOc3ccc(C#CCN(C)C)cc3F)s2)nnc1Nc1nc2ccccc2s1 [Example 226, 2-[[6-(1,3-Benzothiazol-2-ylamino)-5-methyl-pyridazin-3-yl]-[5-[2-hydroxyethyl(dimethyl)ammonio]pentyl]amino]-5-[3-[4-[3-(dimethylamino)prop-1-ynyl]-2-fluoro-phenoxy]propyl]thiazole-4-carboxylate]
– | 802 nM | – | 3.5 pM | Cc1cc(N(CCCCC[N+](C)(C)CC(=O)O)c2nc(C(=O)[O-])c(CCCOc3ccc(C#CCN(C)C)cc3F)s2)nnc1Nc1nc2ccccc2s1 [Example 227, 2-[[6-(1,3-Benzothiazol-2-ylamino)-5-methyl-pyridazin-3-yl]-[5-[carboxymethyl(dimethyl)ammonio]pentyl]amino]-5-[3-[4-[3-(dimethylamino)prop-1-ynyl]-2-fluoro-phenoxy]propyl]thiazole-4-carboxylate]
– | 149 nM | – | 4.5 pM | Cc1cc(N(CCCC(=O)O)c2nc(C(=O)O)c(CCCOc3ccc(C#CCN(C)C)cc3F)s2)nnc1Nc1nc2ccccc2s1 [Example 238, 2-({6-[(1,3-Benzothiazol-2-yl)amino]-5-methylpyridazin-3-yl}(3-carboxypropyl)amino)-5-(3-{4-[3-(dimethylamino)prop-1-yn-1-yl]-2-fluorophenoxy}propyl)-1,3-thiazole-4-carboxylic acid]
– | 525 nM | – | 7.8 pM | Cc1cc(N(CCCCP(=O)(O)O)c2nc(C(=O)O)c(CCCOc3ccc(C#CCN(C)C)cc3F)s2)nnc1Nc1nc2ccccc2s1 [Example 242, 2-({6-[(1,3-Benzothiazol-2-yl)amino]-5-methylpyridazin-3-yl}(4-phosphonobutyl)amino)-5-(3-{4-[3-(dimethylamino)prop-1-yn-1-yl]-2-fluorophenoxy}propyl)-1,3-thiazole-4-carboxylic acid]
– | 112 nM | – | 5 pM | Cc1cc(N(CCCCC(=O)O)c2nc(C(=O)O)c(CCCOc3ccc(C#CCN(C)C)cc3F)s2)nnc1Nc1nc2ccccc2s1 [Example 243, 2-({6-[(1,3-Benzothiazol-2-yl)amino]-5-methylpyridazin-3-yl}(4-carboxybutyl)amino)-5-(3-{4-[3-(dimethylamino)prop-1-yn-1-yl]-2-fluorophenoxy}propyl)-1,3-thiazole-4-carboxylic acid]

— patent publication US12649733B2, “3,6-diamino-pyridazin-3-yl derivatives, pharmaceutical compositions containing them and their uses as pro-apoptotic agents” (LES LABORATOIRES SERVIER, priority 2019, dated 2026)
